# Measured values: US20210324359A1, “USE OF GRAM-NEGATIVE LYSIN-ANTIMICROBIAL PEPTIDE (AMP) POLYPEPTIDE CONSTRUCTS IN TREATING ENDOCARDITIS” (priority 2020, published 2021)
# Read-outs that look alike come from different tables or passages of the source.
# Columns and labels:
# Assay type in all cases: cell-based, Pseudomonas aeruginosa
# P. aeruginosa PA20 = test: MIC of GN370 and meropenem against the infecting strain; details: Pseudomonas aeruginosa
# [1] = tested on: carbapenem-resistant P. aeruginosa strains; test: Resensitization of carbapenem-resistant strains, combinations with imipenem or meropenem (Tables 18-22); details: for MIC: Pseudomonas aeruginosa
# P. aeruginosa isolates = test: MIC against a range of isolates in CAA + […] human serum (Table 11); details: Pseudomonas aeruginosa
# [2] = in combination with GN123, isolate PA19
# [3] = in combination with GN123, isolate PA20
# [4] = in combination with GN123, isolate PA21
# [5] = in combination with GN123, isolate PA22
# [6] = in combination with GN123, isolate PA23
# [7] = in combination with GN123, isolate PA24
# [8] = in combination with GN123, isolate WC-452
compound,measurement,setting,value
"C[C@@H](O)[C@H]1C(=O)N2C(C(=O)O)=C(S[C@@H]3CN[C@H](C(=O)N(C)C)C3)[C@H](C)[C@H]12 [Meropenem, meropenem, reference compound]",MIC,"P. aeruginosa PA20; GN370, read-out: MIC against P. aeruginosa",16 µg/mL
same,MIC,"P. aeruginosa PA20; PA20, read-out: MIC of P. aeruginosa PA20",16 µg/mL
same,MIC,[1]; isolate PA19,32 µg/mL
same,MIC,[1]; isolate PA20,16 µg/mL
same,MIC,[1]; isolate PA21,32 µg/mL
same,MIC,[1]; isolate PA22,16 µg/mL
same,MIC,[1]; isolate PA23,16 µg/mL
same,MIC,[1]; isolate PA24,32 µg/mL
same,MIC,[1]; isolate WC-452,16 µg/mL
same,"antibiotic MIC, Combination","[1]; in combination with GN121, isolate PA19",1 µg/mL
same,"antibiotic MIC, Combination","[1]; in combination with GN121, isolate PA20",1 µg/mL
same,"antibiotic MIC, Combination","[1]; in combination with GN121, isolate PA21",2 µg/mL
same,"antibiotic MIC, Combination","[1]; in combination with GN121, isolate PA22",1 µg/mL
same,"antibiotic MIC, Combination","[1]; in combination with GN121, isolate PA23",2 µg/mL
same,"antibiotic MIC, Combination","[1]; in combination with GN121, isolate PA24",1 µg/mL
same,"antibiotic MIC, Combination","[1]; in combination with GN121, isolate WC-452",1 µg/mL
same,"antibiotic MIC, Combination",[1]; [2],0.5 µg/mL
same,"carbapenem susceptibility class, Combination",[1]; [2],(S) ((S) = sensitive)
same,"antibiotic MIC, Combination",[1]; [3],0.5 µg/mL
same,"carbapenem susceptibility class, Combination",[1]; [3],(S) ((S) = sensitive)
same,"antibiotic MIC, Combination",[1]; [4],1 µg/mL
same,"carbapenem susceptibility class, Combination",[1]; [4],(S) ((S) = sensitive)
same,"antibiotic MIC, Combination",[1]; [5],1 µg/mL
same,"carbapenem susceptibility class, Combination",[1]; [5],(S) ((S) = sensitive)
same,"antibiotic MIC, Combination",[1]; [6],0.5 µg/mL
same,"carbapenem susceptibility class, Combination",[1]; [6],(S) ((S) = sensitive)
same,"antibiotic MIC, Combination",[1]; [7],2 µg/mL
same,"carbapenem susceptibility class, Combination",[1]; [7],(S) ((S) = sensitive)
same,"antibiotic MIC, Combination",[1]; [8],1 µg/mL
same,"carbapenem susceptibility class, Combination",[1]; [8],(S) ((S) = sensitive)
same,"carbapenem susceptibility class, Combination","[1]; in combination with GN351, vs. WC-452",(S) ((S) = sensitive)
same,"carbapenem susceptibility class, Combination","[1]; in combination with GN370, vs. WC-452",(S) ((S) = sensitive)
same,"carbapenem susceptibility class, Combination","[1]; in combination with GN428, vs. WC-452",(S) ((S) = sensitive)
same,"carbapenem susceptibility class, antibiotic Alone",[1]; isolate PA19,R ((R) = resistant)
same,"carbapenem susceptibility class, antibiotic Alone",[1]; isolate PA20,R ((R) = resistant)
same,"carbapenem susceptibility class, antibiotic Alone",[1]; isolate PA21,R ((R) = resistant)
same,"carbapenem susceptibility class, antibiotic Alone",[1]; isolate PA22,R ((R) = resistant)
same,"carbapenem susceptibility class, antibiotic Alone",[1]; isolate PA23,R ((R) = resistant)
same,"carbapenem susceptibility class, antibiotic Alone",[1]; isolate PA24,R ((R) = resistant)
same,"carbapenem susceptibility class, antibiotic Alone",[1]; isolate WC-452,R ((R) = resistant)
same,"Antibiotic MIC / Lysin MIC, Alone",[1]; vs. WC-452 (Table 22),16
same,MIC,"P. aeruginosa isolates; ATCC17646, read-out: Meropenem MIC, strain CFS 1109 (ATCC 17646)",0.5 µg/mL
same,MIC,"P. aeruginosa isolates; ATCC27853, read-out: Meropenem MIC, strain CFS 1766 (ATCC 27853)",1 µg/mL
same,MIC,"P. aeruginosa isolates; PA1, read-out: Meropenem MIC, strain CFS1539 (PA1)",16 µg/mL
same,MIC,"P. aeruginosa isolates; read-out: Meropenem MIC, strain CFS 1292",32 µg/mL
same,MIC,"P. aeruginosa isolates; read-out: Meropenem MIC, strain CFS 1540 (PA2)",16 µg/mL
same,MIC,"P. aeruginosa isolates; read-out: Meropenem MIC, strain CFS 1541 (PA3)",8 µg/mL
same,MIC,"P. aeruginosa isolates; read-out: Meropenem MIC, strain CFS 1557 (PA19)",32 µg/mL
same,MIC,"P. aeruginosa isolates; read-out: Meropenem MIC, strain CFS 1558 (PA20)",16 µg/mL
same,MIC,"P. aeruginosa isolates; read-out: Meropenem MIC, strain CFS 1559 (PA21)",> 32 µg/mL
same,MIC,"P. aeruginosa isolates; read-out: Meropenem MIC, strain CFS 1560 (PA22)",16 µg/mL
same,MIC,"P. aeruginosa isolates; read-out: Meropenem MIC, strain CFS 1561 (PA23)",16 µg/mL
same,MIC,"P. aeruginosa isolates; read-out: Meropenem MIC, strain CFS 1562 (PA24)",> 32 µg/mL
same,MIC,"P. aeruginosa isolates; read-out: Meropenem MIC, strain CFS 1596 (PA26)",0.5 µg/mL
same,MIC,"P. aeruginosa isolates; read-out: Meropenem MIC, strain CFS 1597 (PA27)",1 µg/mL
same,MIC,"P. aeruginosa isolates; read-out: Meropenem MIC, strain CFS 1669 (PA41)",< 0.25 µg/mL
same,MIC,"P. aeruginosa isolates; read-out: Meropenem MIC, strain CFS 1674 (PA46)",4 µg/mL
same,MIC,"P. aeruginosa isolates; read-out: Meropenem MIC, strain CFS 1675 (PA47)",4 µg/mL
